# Data from patent US20220332701A1, “HETEROCYCLIC COMPOUNDS AS BCR-ABL INHIBITORS” (ASCENTAGE PHARMA (SUZHOU) CO., LTD., priority 2019, published 2022).
# Tests used:
# [1] = molecular target: BaF3(T315I) (Homo sapiens, UniProt P00519, T315I, cells depend on it); assay: WST (CCK-8) anti-proliferation assay, BaF3 T315I cells; settings: read-out: BaF3(T315I); anti-proliferative IC50, 72 h treatment, CCK-8, BaF3 T315I
# Method: (§1) The anti-proliferative effect of representative Compounds of the Disclosure was determined by a water-soluble tetrazolium (WST)-based assay using Cell Counting Kit-8 (CCK-8). Cells were seeded in 96-well plates and treated with different concentrations of test articles for 72 h. Each treatment was tested in triplicates. Briefly, a series of 9 concentrations were chosen for each test article and added at 100 μl/well into a 96-well plate. Each concentration was tested in triplicates. 100 μl of diluent was added into 3-6 wells in the same plate for cell control group, and another set of 3-6 wells was used as a blank control.
# (§2) In each well, 100 μl of cell suspension (containing optimal cell numbers, which creates approximately 100% confluence of cells in control wells based on by the absorbance (OD) value) was dispensed into the same 96-well plate except for the blank well. The plate was then cultured at 37° C. in an incubator in an atmosphere with 5% CO2 for 72 h. At the end of treatments, 20 μl/well of CCK-8 reagent was directly added to each wells. The plate was then incubated at 37° C. in an incubator in an atmosphere with 5% CO2 for 2-4 hour.
# (§3) The cells viability was calculated using the mean OD value of triplicated wells following the equation below: (OD sample−OD blank)/(OD cell control−OD blank)×100 IC50 values were calculated with Graphpad Prism 6.0 software using nonlinear regression (curve fitting) type data analysis.
# [2] = molecular target: BaF3(WT) (Homo sapiens, UniProt P00519); assay: WST (CCK-8) anti-proliferation assay, BaF3 WT cells; settings: read-out: BaF3(WT); anti-proliferative IC50, 72 h treatment, CCK-8, BaF3 WT
# Method: as §1, §2, §3
SMILES,GI50 [1] [nM],GI50 [2] [nM]
"CN1C(=O)C(C)(C)c2c(-c3ccn[nH]3)cc(C(=O)Nc3ccc(OC(F)(F)Cl)cc3)cc21 [V-2, N-(4-(chlorodifluoromethoxy)phenyl)-1,3,3-trimethyl-2-oxo-4-(1H-pyrazol-5-yl)indoline-6-carboxamide]",354,55
"CC1CN(C(C)C)c2cc(C(=O)Nc3ccc(OC(F)(F)Cl)cc3)cc(-c3ccn[nH]3)c21 (stereo not shown) [III-1, N-(4-(chlorodifluoromethoxy)phenyl)-1-isopropyl-3-methyl-4-(1H-pyrazol-5-yl)indoline-6-carboxamide]",3250,119
"CC(C)N1c2c(cc(C(=O)Nc3ccc(OC(F)(F)Cl)cc3)cc2-c2ccn[nH]2)CC1CN(C)C (stereo not shown) [VII-13, N-(4-(chlorodifluoromethoxy)phenyl)-2-((dimethylamino)methyl)-1-isopropyl-7-(1H-pyrazol-5-yl)indoline-5-carboxamide]",1410,266
"CC(C)N1CCc2cc(C(=O)Nc3ccc(OC(F)(F)Cl)cc3)cc(-c3ccn[nH]3)c21 [VII-1, N-(4-(chlorodifluoromethoxy)phenyl)-1-isopropyl-7-(1H-pyrazol-5-yl)indoline-5-carboxamide]",91,26
"O=C(Nc1ccc(OC(F)(F)Cl)cc1)c1cc2c(c(-c3ccn[nH]3)c1)N(C1CCCC1)CC2 [VII-2, N-(4-(chlorodifluoromethoxy)phenyl)-1-cyclopentyl-7-(1H-pyrazol-5-yl) indoline-5-carboxamide]",272,29
"CC(C)n1cc(Cl)c2cc(C(=O)Nc3ccc(OC(F)(F)Cl)cc3)cc(-c3cncnc3)c21 [XII-4, 3-chloro-N-(4-(chlorodifluoromethoxy)phenyl)-1-isopropyl-7-(pyrimidin-5-yl)-1H-indole-5-carboxamide]",726,128
"CN1CCN(CCN2C(=O)c3cc(C(=O)Nc4ccc(OC(F)(F)Cl)cc4)cc(-c4ccn[nH]4)c3C2(C)C)CC1 [IV-6, N-(4-(chlorodifluoromethoxy)phenyl)-1,1-dimethyl-2-(2-(4-methylpiperazin-1-yl)ethyl)-3-oxo-7-(1H-pyrazol-5-yl)isoindoline-5-carboxamide]",1570,501
"O=C(Nc1ccc(OC(F)(F)Cl)cc1)c1cc2c(c(-c3ccn[nH]3)c1)C1(CCCCC1)C(=O)N2 [V-11, N-(4-(chlorodifluoromethoxy)phenyl)-2′-oxo-4′-(1H-pyrazol-5-yl)spiro[cyclohexane-1,3′-indoline]-6′-carboxamide]",40,8
"O=C(Nc1ccc(OC(F)(F)Cl)cc1)c1cc2c(c(-c3ccn[nH]3)c1)N(C1CC(CO)C1)CC2 (stereo not shown) [VII-12, N-(4-(chlorodifluoromethoxy)phenyl)-1-(3-(hydroxymethyl)cyclobutyl)-7-(1H-pyrazol-3-yl)indoline-5-carboxamide]",123,112
"CC(C)N1c2c(cc(C(=O)Nc3ccc(OC(F)(F)Cl)cc3)cc2-c2ccn[nH]2)CC1C(=O)N1CCN(C)CC1 (stereo not shown) [VII-33, N-(4-(chlorodifluoromethoxy)phenyl)-1-isopropyl-2-(4-methylpiperazine-1-carbonyl)-7-(1H-pyrazol-5-yl)indoline-5-carboxamide]",163,49
"CNCC1CN(C(C)C)c2c(-c3ccn[nH]3)cc(C(=O)Nc3ccc(OC(F)(F)Cl)cc3)cc21 (stereo not shown) [VII-28, N-(4-(chlorodifluoromethoxy)phenyl)-1-isopropyl-3-((methylamino)methyl)-7-(1H-pyrazol-5-yl)indoline-5-carboxamide]",575,132
"O=C(Nc1ccc(OC(F)(F)Cl)cc1)c1cc2c(c(-c3ccn[nH]3)c1)C1(CC(O)C(O)C1)C(=O)N2 (stereo not shown) [V-9, N-(4-(chlorodifluoromethoxy)phenyl)-3,4-dihydroxy-2′-oxo-4′-(1H-pyrazol-5-yl)spiro[cyclopentane-1,3′-indoline]-6′-carboxamide]",910,108
"O=C(Nc1ccc(OC(F)(F)Cl)cc1)c1cc2c(c(-c3ccn[nH]3)c1)N(C1CC1)CC2 [VII-5, N-(4-(chlorodifluoromethoxy)phenyl)-1-cyclopropyl-7-(1H-pyrazol-5-yl) indoline-5-carboxamide]",295,34
"O=C(Nc1ccc(OC(F)(F)Cl)cc1)c1cc2c(c(-c3ccn[nH]3)c1)N(CCO)CC2 [VII-6, N-(4-(chlorodifluoromethoxy)phenyl)-1-(2-hydroxyethyl)-7-(1H-pyrazol-5-yl) indoline-5-carboxamide]",250,112
"CC(C)N1c2c(cc(C(=O)Nc3ccc(OC(F)(F)Cl)cc3)cc2-c2cncnc2)CC1C(=O)N1CCOCC1 (stereo not shown) [VII-23, N-(4-(chlorodifluoromethoxy)phenyl)-1-isopropyl-2-(morpholine-4-carbonyl)-7-(pyrimidin-5-yl)indoline-5-carboxamide]",146,17
"CNCC1Cc2cc(C(=O)Nc3ccc(OC(F)(F)Cl)cc3)cc(-c3ccn[nH]3)c2N1C(C)C (stereo not shown) [VII-17, N-(4-(chlorodifluoromethoxy)phenyl)-1-isopropyl-2-((methylamino)methyl)-7-(1H-pyrazol-5-yl) indoline-5-carboxamide]",3230,584

SMILES,GI50 [1] [nM],GI50 [2] [nM]
"CC(C)N1CC(C)(C)c2cc(C(=O)Nc3ccc(OC(F)(F)Cl)cc3)cc(-c3ccn[nH]3)c21 [VII-40, N-(4-(chlorodifluoromethoxy)phenyl)-1-isopropyl-3,3-dimethyl-7-(1H-pyrazol-5-yl)indoline-5-carboxamide]",256,20
"CC(C)N1CCc2cc(C(=O)Nc3ccc(OC(F)(F)Cl)cc3)cc(-c3cncnc3)c21 [VII-4, N-(4-(chlorodifluoromethoxy)phenyl)-1-isopropyl-7-(pyrimidin-5-yl)indoline-5-carboxamide]",136,42
"CN1CCc2cc(C(=O)Nc3ccc(SC(F)(F)F)cc3)cc(-c3ccn[nH]3)c21 [VII-44, 1-methyl-7-(1H-pyrazol-5-yl)-N-(4-((trifluoromethyl)thio)phenyl)indoline-5-carboxamide]",666,66
"CC(C)N1c2c(cc(C(=O)Nc3ccc(OC(F)(F)Cl)cc3)cc2-c2cncnc2)CC1C(=O)N(C)C (stereo not shown) [VII-15, N5-(4-(chlorodifluoromethoxy)phenyl)-1-isopropyl-N2,N2-dimethyl-7-(pyrimidin-5-yl)indoline-2,5-dicarboxamide]",131,19
"CC(C)N1c2c(cc(C(=O)Nc3ccc(OC(F)(F)Cl)cc3)cc2-c2ccn[nH]2)CC1CC(=O)N1CCOCC1 (stereo not shown) [VII-35, N-(4-(chlorodifluoromethoxy)phenyl)-1-isopropyl-2-(2-morpholino-2-oxoethyl)-7-(1H-pyrazol-5-yl)indoline-5-carboxamide]",1190,173
"CC(C)N1C(=O)C(C)(C)c2cc(C(=O)Nc3ccc(OC(F)(F)Cl)cc3)cc(-c3cncnc3)c21 [VIII-2, N-(4-(chlorodifluoromethoxy)phenyl)-1-isopropyl-3,3-dimethyl-2-oxo-7-(pyrimidin-5-yl)indoline-5-carboxamide]",1990,359
"CC(C)N1CCCCc2cc(C(=O)Nc3ccc(OC(F)(F)Cl)cc3)cc(-c3ccn[nH]3)c21 [X-1, N-(4-(chlorodifluoromethoxy)phenyl)-1-isopropyl-9-(1H-pyrazol-5-yl)-2,3,4,5-tetrahydro-1H-benzo[b]azepine-7-carboxamide]",1290,67
"CN1CC(C)(C)c2c(-c3ccn[nH]3)cc(C(=O)Nc3ccc(OC(F)(F)Cl)cc3)cc21 [III-2, N-(4-(chlorodifluoromethoxy)phenyl)-1,3,3-trimethyl-4-(1H-pyrazol-5-yl)indoline-6-carboxamide]",2060,78
"CC(C)N1CCCc2cc(C(=O)Nc3ccc(OC(F)(F)Cl)cc3)cc(-c3ccn[nH]3)c21 [IX-1, N-(4-(chlorodifluoromethoxy)phenyl)-1-isopropyl-8-(1H-pyrazol-5-yl)-1,2,3,4-tetrahydroquinoline-6-carboxamide]",1050,235
"CC(C)N1c2c(cc(C(=O)Nc3ccc(OC(F)(F)Cl)cc3)cc2-c2ccn[nH]2)CC1CO (stereo not shown) [VII-34, N-(4-(chlorodifluoromethoxy)phenyl)-2-(hydroxymethyl)-1-isopropyl-7-(1H-pyrazol-5-yl)indoline-5-carboxamide]",648,45
"CNC(=O)C1Cc2cc(C(=O)Nc3ccc(OC(F)(F)Cl)cc3)cc(-c3cncnc3)c2N1C(C)C (stereo not shown) [VII-16, N5-(4-(chlorodifluoromethoxy)phenyl)-1-isopropyl-N2-methyl-7-(pyrimidin-5-yl)indoline-2,5-dicarboxamide]",278,28
"COCCN(CCOC)C(=O)C1Cc2cc(C(=O)Nc3ccc(OC(F)(F)Cl)cc3)cc(-c3ccn[nH]3)c2N1C(C)C (stereo not shown) [VII-30, N^5-(4-(chlorodifluoromethoxy)phenyl)-1-isopropyl-N2,N2-bis(2-methoxyethyl)-7-(1H-pyrazol-5-yl)indoline-2,5-dicarboxamide]",94,16
"O=C(Nc1ccc(OC(F)(F)Cl)cc1)c1cc2c(c(-c3ccn[nH]3)c1)N(C1CCCCC1)CC2 [VII-3, N-(4-(chlorodifluoromethoxy)phenyl)-1-cyclohexyl-7-(1H-pyrazol-5-yl) indoline-5-carboxamide]",574,123
"CC1CN(C(C)C)c2c(-c3cncnc3)cc(C(=O)Nc3ccc(OC(F)(F)Cl)cc3)cc21 (stereo not shown) [VII-37, N-(4-(chlorodifluoromethoxy)phenyl)-1-isopropyl-3-methyl-7-(pyrimidin-5-yl)indoline-5-carboxamide]",395,41
"CN1CCC2(C1)C(=O)Nc1cc(C(=O)Nc3ccc(OC(F)(F)Cl)cc3)cc(-c3cc[nH]n3)c12 (stereo not shown) [V-8, N-(4-(chlorodifluoromethoxy)phenyl)-1′-methyl-2-oxo-4-(1H-pyrazol-3-yl)spiro[indoline-3,3′-pyrrolidine]-6-carboxamide]",,1550
